# Molecular target: T1, ERAAP (ER aminopeptidase associated with antigen processing) (Mus musculus, UniProt Q9EQH2)
# T1 sequence (Q9EQH2 1-930): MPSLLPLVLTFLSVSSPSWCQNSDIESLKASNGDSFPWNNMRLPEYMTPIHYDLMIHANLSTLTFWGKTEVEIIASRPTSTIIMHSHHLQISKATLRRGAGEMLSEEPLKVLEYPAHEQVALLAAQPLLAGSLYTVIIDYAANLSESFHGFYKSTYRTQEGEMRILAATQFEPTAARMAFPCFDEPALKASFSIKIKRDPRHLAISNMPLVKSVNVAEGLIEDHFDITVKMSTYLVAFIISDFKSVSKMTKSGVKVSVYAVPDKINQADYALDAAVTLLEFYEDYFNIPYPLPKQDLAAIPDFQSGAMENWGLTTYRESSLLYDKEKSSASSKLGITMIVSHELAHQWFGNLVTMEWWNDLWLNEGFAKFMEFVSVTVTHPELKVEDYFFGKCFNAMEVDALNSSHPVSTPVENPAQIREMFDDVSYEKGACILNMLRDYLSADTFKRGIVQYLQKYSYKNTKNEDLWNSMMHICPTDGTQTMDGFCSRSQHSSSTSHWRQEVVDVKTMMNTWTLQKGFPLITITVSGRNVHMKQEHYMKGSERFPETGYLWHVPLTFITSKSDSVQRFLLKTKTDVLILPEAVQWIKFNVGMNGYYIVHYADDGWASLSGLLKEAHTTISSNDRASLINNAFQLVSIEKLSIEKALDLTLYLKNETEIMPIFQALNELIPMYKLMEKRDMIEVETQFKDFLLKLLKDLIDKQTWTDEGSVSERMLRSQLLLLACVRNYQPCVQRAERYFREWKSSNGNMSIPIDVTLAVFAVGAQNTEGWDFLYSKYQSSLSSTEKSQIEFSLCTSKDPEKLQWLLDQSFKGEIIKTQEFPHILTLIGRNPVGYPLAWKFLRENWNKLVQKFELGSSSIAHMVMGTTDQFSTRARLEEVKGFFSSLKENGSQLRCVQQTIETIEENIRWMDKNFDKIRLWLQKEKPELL
# Experiment: fluorogenic Ep peptide cleavage assay, dose-response
# Type: biochemical
structure (smiles),measurement,value
"C#CC(=O)c1ccc(Br)cc1F [A, 1-(4-bromo-2-fluorophenyl)prop-2-yn-1-one]",IC50,23 µM

# Source: article PMC6092045 (Chemical communications (Cambridge, England), 2018)
